The target in data set [1] is T1, human 11β-HSD type 1 (Homo sapiens, UniProt P28845). In words: Plasma bioactivity after single oral administration in C57BL/6N mice, read as inhibition of human 11β-HSD type 1 (SPA). Particulars: for inhibition at 2.5 mg/kg / inhibition at 10 mg/kg: po, mice, table with plasma levels; for inhibition at 2.5 mg/kg: 2.5 mg/kg oral; for inhibition at 10 mg/kg: 10 mg/kg oral. Type of data set: in vivo. On the procedure: The evaluation is made in on 4- to 6-week-old non-fasted male C57BL/6N strain mice. The compounds to be tested or the vehicle (0.5% methylcellulose in water, at 10 ml/kg) are administered orally; n=3 mice per treatment.
Blood samples are collected 1 h and 4 h after administration; the tubes are centrifuged to obtain plasma and frozen at −70° C. until bioanalysis. Plasma bioactivity (2% final volume) is analyzed by using the inhibition of human 11β-HSD type 1 as a detection system (SPA technology) for each compound at each dose tested. Percent inhibition (versus mice treated with carrier) is calculated for each dose.

A short description of data set [2]: Plasma and tissue levels after single oral administration in cynomolgus monkeys (LC-MS/MS). The class given is in vivo. The following applies: male, cynomolgus monkey, 20 mg/kg oral. The procedure:
(§1) Five adult male cynomolgus monkeys (same animals used in studies 1 and 2 of Example 4) are fasted the evening before the experiment. Blood samples are taken right before administration of Compound 1K (dose of 20 mg/kg, n=3) or administration of the vehicle (0.5% methylcellulose in water, n=2) then 4 hours after oral administration. The animals are euthanized, necropsy is performed on the monkeys, samples of plasma and of target tissues are taken and then frozen in liquid nitrogen and stored at −70° C. until ex vivo analyses. To test the ex vivo activity of 11β-HSD type 1, 5-10 mg liver samples were incubated in duplicate for 30 minutes at 37° C. with 17 nM [1,2-^3H] cortisone in 50 mM HEPES (pH 7.4), 100 mM KCl, 5 mM NaCl, 2 mM MgCl2. Plasma levels were measured by the LC-MS/MS analytical method. The liver samples were homogenized by sonication and extracted with acetonitrile (1 ml of distilled water, 4 ml of acetonitrile for 200 mg of tissue). Tissue levels of the compounds were measured by the LC-MS/MS analytical method.
(§2) The protocol is the same as that described in Example 5, except that the tissue samples are from mesenteric, subcutaneous and inguinal adipose tissue.

Data set [3] concerns the target T1, human 11β-HSD type 1. In words: Bioactivity of inguinal white adipose tissue after single oral administration in C57BL/6N mice, read as inhibition of human 11β-HSD type 1 (SPA). The following applies: mouse inguinal white adipose tissue extract. Type of data set: in vivo. On the procedure: Four hours post-administration, the mice are euthanized and inguinal white adipose tissue is taken and frozen at −70° C. until the day of bioanalyses. The white adipose tissue is homogenized in liquid nitrogen and then treated with acetonitrile (1 ml of distilled water for 4 ml of acetonitrile and 200 mg of inguinal white adipose tissue) to extract soluble substances. The acetonitrile fraction is collected, then dried, and the residue is dissolved in 1 ml of DMSO for 300 mg of white adipose tissue.
Compounds tested: the same as those of Example 2.

The next data set concerns hepatic 11β-HSD type 1. In words: Ex vivo activity of hepatic 11β-HSD type 1 after single oral administration in cynomolgus monkeys. The following applies: 20 mg/kg single oral, liver 4 hours after administration. On the procedure: as §1
The next data set concerns the target T2, human 11β-HSD 1 (Homo sapiens, UniProt P28845).
T2 construct: evaluated on primary human adipocytes in culture (ZenBio); host or cells: primary human preadipocytes differentiated into adipocytes, from three donors
In words: Inhibition of human 11β-HSD 1 in primary human differentiated adipocytes in culture (cortisone to cortisol, SPA). Type of data set: cell-based. On the procedure:
Inhibition of human 11β-HSD 1 enzyme is evaluated on primary human adipocytes in culture (ZenBio).
Preadipocytes are thawed and their viability is confirmed. The preadipocytes are then placed in 96-well microplates in a specific preadipocyte medium (PM-1) provided by ZenBio; the plates are incubated at 37° C. with 5% CO2. One day or more after the cells are confluent, PM-1 is replaced with a more specific differentiation medium (DM), also provided by ZenBio, containing isobutylmethylxanthine, insulin, dexamethasone and a PPAR agonist. The cells will differentiate into adipocytes after a minimum of 7 days. Next, the mature adipocytes are maintained for 4 to 6 days in adipocyte maintenance medium (AM). Then, in the presence of serum treated with dextran-coated charcoal, the cells are placed in steroid-deficient conditions for 48 h, and are pretreated with the inhibitors to be tested or their carrier (0.1% DMSO) for 1 h at 37° C. before the pulse with cortisone. Tritiated cortisone is added for 4 hours to reach a final concentration of 20 nM. The cortisol concentration is quantified from the cell supernatant using SPA technology. EC50 values are obtained with the SigmaPlot v.11 software, four parameter logistic equation; the reported values come from three different experiments carried out on three different donors.

Data set [4] in a line: Plasma exposure in cynomolgus monkeys (prednisone challenge studies, LC-MS/MS). Type of data set: in vivo. The following applies: same dose of 20 mg/kg. On the procedure:
(§3) Briefly, the study is carried out in naive adult male cynomolgus monkeys fasted overnight. The 11β-HSD type 1 inhibitor or its vehicle (0.5% methylcellulose in water) is administered via nasogastric intubation. Two hours later, a challenge with orally administered prednisone (10 mg/kg) is performed and blood samples are taken regularly for 24 hours. These samples are centrifuged to obtain plasma and immediately frozen at −70° C. until bioanalysis. Plasma levels of prednisone, prednisolone and 11β-HSD type 1 inhibitors are measured by LC-MS/MS analytical methods.
(§4) The study is carried out over a period of 10 weeks. Profiles of plasma concentration as a function of time and areas under the curve are calculated using the trapezoidal method for all parameters.

Data set [5] concerns 11β-HSD type 1 of adipose tissue. Briefly: Ex vivo activity of 11β-HSD type 1 of adipose tissue after single oral administration to cynomolgus monkeys. Particulars: 20 mg/kg single oral, 4 hours, mesenteric and subcutaneous adipose tissue. Type of data set: in vivo. The procedure:
as §1, §2

Data set [6] in a line: Clinical and behavioral signs in cynomolgus monkeys during the prednisone challenge studies. The class given is in vivo. The following applies: study no. 2, 20, 40 and 80 mg/kg, even at 80 mg/kg. On the procedure:
as §3, §4

Where [7] appears, read: 1 h, read-out: Plasma 1 h % inh.
Where [8] appears, read: 4 h, read-out: Plasma 4 h % inh.

Read-outs that look alike come from different tables or passages of the source.

T1 sequence (P28845 whole entry): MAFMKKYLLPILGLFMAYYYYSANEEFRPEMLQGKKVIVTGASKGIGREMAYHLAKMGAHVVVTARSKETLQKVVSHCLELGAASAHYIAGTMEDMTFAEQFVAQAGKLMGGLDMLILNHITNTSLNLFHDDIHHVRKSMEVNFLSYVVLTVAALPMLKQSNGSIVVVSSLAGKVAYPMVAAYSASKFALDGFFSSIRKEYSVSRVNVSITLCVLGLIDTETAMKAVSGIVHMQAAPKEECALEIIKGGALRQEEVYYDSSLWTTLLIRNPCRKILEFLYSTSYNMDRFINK
T2 sequence (P28845 whole entry): as above

As a reminder, the % inhibition is the drop in the measured response relative to a control, in per cent. A lower % inhibition goes with a weak effect. As usually defined, the EC50 is the concentration at which the effect is half-maximal. For the compound `CN1C(C(=O)c2ccc3ccccc3c2)=C([O-])c2ccccc2S1(=O)=O.[K+]` [Compound 1K, potassium 3-(2-naphthoyl)-2-methyl-2H-benzo[e][1,2]thiazin-4-olate 1,1-dioxide], the “% inhibition at 1 h” value turned out to be 47% at human 11β-HSD type 1 [1] (mouse plasma (2% final volume), 1 h after 0.63 mg/kg oral); 78% at human 11β-HSD type 1 [1] (mouse plasma, 1 h after 2.5 mg/kg oral); 91% on human 11β-HSD type 1 [1] (mouse plasma, 1 h after 10 mg/kg oral). Further, the “% inhibition at 4 h” value at human 11β-HSD type 1 [1] (mouse plasma, 4 h after 0.63 mg/kg oral) was 36%; on human 11β-HSD type 1 [1] (mouse plasma, 4 h after 2.5 mg/kg oral), 67%; on human 11β-HSD type 1 [1] (mouse plasma, 4 h after 10 mg/kg oral) it was 86%. Moreover, the values for the inhibition at 2.5 mg/kg on human 11β-HSD type 1 [1] (setting [7]) and on human 11β-HSD type 1 [1] (setting [8]) were 75 ± 4% and 63 ± 6%, respectively. Also, the inhibition at 10 mg/kg worked out at 89 ± 1% on human 11β-HSD type 1 [1] (setting [7]) and 85 ± 2% on human 11β-HSD type 1 [1] (setting [8]). Moreover, the concentration at 4 h was 13600 ± 3700 ng/g in data set [2] (liver, read-out: mean hepatic levels (in relative value)); 6100 ± 1500 ng/g in data set [2] (inguinal adipose tissue, read-out: tissue levels (in relative value), inguinal adipose tissue); 6600 ± 400 ng/g in data set [2] (mesenteric adipose tissue, read-out: tissue levels (in relative value), mesenteric adipose tissue); 17000 ± 3580 ng/mL in data set [2] (plasma, ± SEM, n=3, read-out: mean plasma levels); 1300 ± 100 ng/g in data set [2] (subcutaneous adipose tissue, read-out: tissue levels (in relative value), subcutaneous adipose tissue). Besides, the “% inhibition after 4 h” value is 21% at human 11β-HSD type 1 [3] (4 h after 0.63 mg/kg oral), 41% at human 11β-HSD type 1 [3] (4 h after 2.5 mg/kg oral) and 70% at human 11β-HSD type 1 [3] (4 h after 10 mg/kg oral). The “inhibition of the ex vivo activity of hepatic 11β-HSD type 1” value with hepatic 11β-HSD type 1 is on record as 68%. In addition, the “Emax (% inhibition at 10 μM)” value on human 11β-HSD 1 (10 μM) came out at 97 % inhibition. Besides, the half-maximal effective concentration (EC50) on human 11β-HSD 1 (1 h pretreatment, 20 nM tritiated cortisone 4 h, three donors) is 58 nM. In addition, in data set [4], the “increase of plasma exposure versus Compound 1” value is given as about 8 fold. The “inhibition of ex vivo activity of 11β-HSD type 1 of peripheral and visceral adipose tissue” value in data set [5] is recorded as “complete inhibition”. In addition, in data set [6], the “clinical or behavioral sign” value was “No particular clinical or behavioral sign”.

The values are drawn from patent US20180140609A1, “USE OF (4-HYDROXY-2-METHYL-1,1-DIOXIDO-2H-BENZO[E][1,2]THIAZINE-3-YL)(NAPHTHALENE-2-YL) METHANONE IN THE PREVENTION AND/OR TREATMENT OF NON-ALCOHOLIC STEATOHEPATITIS” (PIERRE FABRE MEDICAMENT, priority 2015, published 2018).
